Source: patent publication US20170343554A1, “METHODS OF MEASURING ERBB SIGNALING PATHWAY ACTIVITY TO DIAGNOSE AND TREAT CANCER PATIENTS” (Celcuity LLC, priority 2014, published 2017)
Read-outs that look alike come from different tables or passages of the source.

How the values were obtained:
[1] = tested on: breast cancer patient cells; experiment: CELx Pathway Shutdown single drug tests, impedance biosensor CReMS (Example 4); assay type: cell-based, human; details: one patient breast cancer cell sample expected to be a responder (FIG. 8B)
Procedure: The physiologic change of the cells and drugs tested was measured with an impedance biosensor CReMS and the summary output from the CReMS is recorded in FIG. 4.
In those experiments involving a combination of drugs, the procedures described in Example 3 were utilized. The list of patient cells and the drug tested with the cells is characterized in FIG. 4.

[2] = tested on: cancer patients (Patients B1, B2, B4, C1, C2); details: cited from earlier work
[3] = tested on: Patient 54 primary breast cancer cells; experiment: Cell attachment signal (CAS) diagnostic assay, impedance biosensor (Example 6); assay type: cell-based, human; details: Patient 54 primary tumor cells, lapatinib with NRG1, fulvestrant with estradiol
Procedure: (§1) The analyte of the diagnostic test used herein is the cell attachment signal (CAS) that viable patient cells generate, alone or in the presence of cell antagonists, when placed in the well of a microplate and analyzed with an impedance biosensor. For every test, the CAS is measured and analyzed for […] of patient cell samples. • 1) Patient cells only (C) • 2) Patient cells+pathway factor(s) (CF) • 3) Patient cells+pathway factor(s)+confirming agent (CCF)
(§2) To detect whether the signaling pathway is functioning normally, the signaling pathway in a patient's diseased cells are perturbed and the resulting activity is compared to the effect the perturbant has on the signaling pathway activity of their healthy cells or the effect of perturbant on the signaling pathway activity of healthy cells from a patient or patients known to be free of disease. The assay measures the change in CAS between the CF and C cells in a patient's healthy cells relative to the change in CAS between the CF and C cells in the diseased cells. Alternatively, the assay can measure the change in CAS between the CF and the C cells in a patient's diseased cells that can be compared to a known result from a patient or pool of patients known to be free of disease. Essentially, if the signaling pathways are abnormal, the CAS change between the healthy and diseased cells will be different. The measurement of change in CAS between CF and CCF diseased cells from a subject provides confirmation that the CF CAS represents activity of the signaling pathway of interest. In the case where CCF is not changed relative to CF, this would indicate that the signaling pathway activity in CF represents some other signaling pathway activity that is not related to the condition of interest. In these cases, the patient would not be considered to have the disease being analyzed.
(§3) Studies were performed confirming the ability of this cell analysis method to measure specific pathway activity in primary non-transformed malignant and healthy epithelial cells as well as cell lines. Representative data from these studies is shown in FIGS. 10 and 11 for two critical pathways involved in breast cancer, PI3K and ERα.

[4] = tested on: BT474 breast cancer cell line cells; experiment: as above; assay type: cell-based; details: lapatinib with NRG1, fulvestrant with estradiol
Procedure: as §1, §2, §3

[5] = tested on: cells from two HER2 overexpressing breast cancer patients (Patient B1 and B4); experiment: CELx Pathway Shutdown test, impedance biosensor CReMS, EGF perturbation (Example 1); assay type: cell-based, human
Excerpt: The change in impedance for a particular well is proportional to the number of cells and type of attachment the cells have with the impedance microplate. Changes in impedance indicate a response to perturbation of these small cell populations.
Prior to addition to the impedance microplate, the cells were removed from their growth container with versene, counted, and re-suspended in media without serum or other growth factors.

[6] = tested on: HER2 signaling pathway activity in viable breast cancer cells of non-overexpressed HER2 patients; experiment: CELx test of HER2 signaling pathway activity by CAS with perturbing and confirming agents (Example 7); assay type: cell-based, human; details: for % Attenuation of NRG1 Signal: non-overexpressing HER2, HER2-driven disease, clinically relevant single concentration; for attenuation of the NRG1 and EGF driven activity, comparison in words: five patients of Table 17, single concentration
Excerpt: Analyte and measurand: The analyte of the diagnostic test used herein is the cell attachment signal (CAS) that viable patient cells generate, alone or in the presence of specific cell signaling pathway perturbants, when placed in the well of an impedance biosensor microplate and continuously measured for electrical impedance. For every test, the CAS is continuously measured and used in the measurand algorithm for up to four portions of patient cell samples from the same patient. • 1. Patient cells only (C) • 2. Patient cells+perturbing pathway factor 1 (CF1) • 3. Patient cells+perturbing pathway factor 2 (CF2) (if necessary) • 4. Patient cells+perturbing pathway factor(s)+Confirming agent (CCF)
The CAS is quantified for each of the up to four portions of patient samples tested (C, CF1, CF2, CCF). To quantify the signaling pathway activity of a patient's diseased cells, the CAS measured in the CF1 and/or CF2 portions is compared to the CAS measured in the C portion. This enables determination of the change in CAS between the CF and C sample portions relative to the change in CAS between the CCF and CF sample portions to confirm how much of the change between CF and C is related to the signaling pathway of interest.
In using this confirming agent, the difference between the CAS of CF1 and/or CF2 and C can be correctly apportioned to HER2 participation. When this confirming agent is applied to cell samples before the perturbing agent, the perturbing agent is blocked from HER2-receptor-related activities thereby generating a CAS value for CCF below the CF1 and/CF2 CAS values by an amount proportional to the participation of the HER2 receptor in the CF1 and/or CF2 change relative to C.
Standard media based on DMEM/F12 without serum, with antibiotics (e.g. penicillin, streptomycin, amphotericin), and HEPES buffer were purchased and used as delivered from VWR (Radnor, Pa.) or Life Technologies (Grand Island, N.Y.).
The commercial-source cell lines were received on dry ice and cultured according to recommendation by the commercial provider. […] Prior to addition to the impedance microplate, the cells were removed from their growth container with trypsin/EDTA solution, counted, and re-suspended in media with antibiotics, without serum, or other growth factors.
The test procedure used (hereinafter referred to as CELx) comprised the following steps, all performed in 5% CO2, 85% humidity, at 37° C.: • 1. Cell Seeding: 180 uL aliquots containing 15,000 viable epithelial cells from each patient or cell line in mammary epithelial growth media with antibiotics, without serum, or other growth factors were distributed to each designated well (C, CCF, CF1, CF2) of an impedance microplate. Impedance was continuously measured throughout steps 2-4 described below. • 2. Confirming agent (20 uL) was added six hours after seeding to pre-specified CCF wells for each cell sample. […] Perturbing Factors were added (20 uL) 18 hours after seeding to pre-specified CF wells for each sample. Wells not receiving perturbing factor received media as control. • 4. Continuous impedance recordings were made for each test well for each patient typically for at least 15 hours after the perturbing agents were added.

[7] = tested on: cells from two breast cancer patients (Patients B1 and B2); experiment: CELx Anti-Proliferative test, impedance biosensor CReMS (Example 2); assay type: cell-based, human; details: for responsiveness, CReM output (cell index) compared to control cells: continuous recording 48-72 hours
Procedure: A CELx Anti-Proliferative test was performed using cells from two breast cancer patients (Patients B1 and B2) and the drug Paclitaxel. The physiologic change of the B land B2 cells during the test was measured with an impedance biosensor CReMS and the output from the CReMS is recorded in FIGS. 2A and 2B. The comparison of the CELx test results and the third party clinical reference is recorded in FIG. 2C.
The CReMS, microplate, reagents, and buffers used in Example 1 are the same as those employed in Example 2, except for the therapeutic agent tested. In Example 2, the therapeutic agent, paclitaxel, was tested. Paclitaxel was purchased from Selleck Chemicals (TX, USA).
Breast Cancer cells from Patients B1 and B2 were utilized and handled in the same manner as described in Example 1.
Between 6,000-12,000 cells in each well were seeded onto the impedance microplate containing 120 uL settling media with serum. Forty microliters of the drug paclitaxel were added to one set each of the B1 and B2 cells; another control set of B1 and B2 cells received no drug. The CReMS recording of physiologic change was maintained continuously from when the cells were first seeded on the microplate through complete cellular response, which was between 48-72 hours. The test was performed at 37° C., 5% CO2 and at 75% relative humidity.

[8] = tested on: MAPK signaling pathway activity of cell sample C54; experiment: CAS measurement after culture in fresh or non-fresh base media (Example 8); assay type: cell-based
Procedure: Many cell screening assays prescribe a simplified media-buffer that cells are placed in before and during the short time they are tested. The present invention with viable primary patient cells is performed with a base media used to maintain viable primary cell samples such that the cell population remains viable and retains its heterogeneity of individual cell types and a normal distribution of cells representing the different phases of the cell cycle during the complete test time of continuous measurement. […] A further aspect of the method includes replacing the base media with fresh base media within 72 hours of initiating contact with the perturbing or confirming agents.
The data highlights the importance of culturing the cells in fresh base media before a cell sample is contacted with a perturbing or confirming agent.

COc1cc2ncnc(Nc3ccc(F)c(Cl)c3)c2cc1OCCCN1CCOCC1 [Gefitinib]
response in the CReMS testing [1]: did not show a response

CS(=O)(=O)CCNCc1ccc(-c2ccc3ncnc(Nc4ccc(OCc5cccc(F)c5)c(Cl)c4)c3c2)o1 [Lapatinib]
responsiveness recorded by the third party clinical reference standard ([2]; Patient B1 (breast cancer)): responsive | responsiveness recorded by the third party clinical reference standard ([2]; Patient B4 (breast cancer)): responsive | effect of the confirming agent on the CAS generated by the pathway factor [3]: reduces | effect of the confirming agent on the CAS generated by the pathway factor ([3]; listed as lapatinib): reduced | effect of the confirming agent on the CAS generated by the pathway factor [4]: reduces | effect of the confirming agent on the CAS generated by the pathway factor ([4]; listed as lapatinib): reduced | CELx Pathway Shutdown test prediction of patient response ([5]; Patient B1): will respond | CELx Pathway Shutdown test prediction of patient response ([5]; Patient B4): would respond

CCOc1cc2ncc(C#N)c(Nc3ccc(OCc4ccccn4)c(Cl)c3)c2cc1NC(=O)/C=C/CN(C)C [Neratinib]
% Attenuation of NRG1 Signal ([6]; Patient R20): 104% | % Attenuation of NRG1 Signal ([6]; Patient R39): 107% | % Attenuation of NRG1 Signal ([6]; Patient R71): 100% | % Attenuation of NRG1 Signal ([6]; Patient R82): 105% | % Attenuation of NRG1 Signal ([6]; Patient R160): 118% | attenuation of the NRG1 and EGF driven activity, comparison in words [6]: highest percentage attenuation

CC(=O)O[C@H]1C(=O)[C@@]2(C)[C@H]([C@H](OC(=O)c3ccccc3)[C@]3(O)C[C@H](OC(=O)[C@H](O)[C@@H](NC(=O)c4ccccc4)c4ccccc4)C(C)=C1C3(C)C)[C@]1(OC(C)=O)CO[C@@H]1C[C@@H]2O [Paclitaxel]
CELx Anti-Proliferative test prediction of patient response ([7]; Patient B1): will respond | responsiveness, CReM output (cell index) compared to control cells ([7]; Patient B1 cells): immediate and continuous responsiveness | CELx Anti-Proliferative test prediction of patient response ([7]; Patient B2): will respond | time after which the CReM output reverses (test cells begin proliferating, no longer responsive) ([7]; Patient B2 cells): roughly 24 hours | responsiveness, CReM output (cell index) compared to control cells ([7]; Patient B2 cells): initial responsiveness | responsiveness recorded by the third party clinical reference standard ([2]; Patient B1 (breast cancer)): responsive | responsiveness recorded by the third party clinical reference standard ([2]; Patient B2 (breast cancer)): responsive

C[C@]12CC[C@@H]3c4ccc(O)cc4C[C@@H](CCCCCCCCC[S+]([O-])CCCC(F)(F)C(F)(F)F)[C@H]3[C@@H]1CC[C@@H]2O (stereo partly drawn) [fulvestrant]
effect of the confirming agent on the CAS generated by the pathway factor [3]: reversed | effect of the confirming agent on the CAS generated by the pathway factor ([3]; listed as Fulvestrant): reduced | effect of the confirming agent on the CAS generated by the pathway factor [4]: reversed | effect of the confirming agent on the CAS generated by the pathway factor ([4]; listed as Fulvestrant): reduced

EGF: human epidermal growth factor, perturbing agent of HER1-HER2 receptor pairings
signaling pathway activity (CAS) on perturbation ([8]; cell sample C54 cultured in fresh base media prior to contact): significant MAPK signaling pathway activity | signaling pathway activity (CAS) on perturbation ([8]; cell sample C54 cultured in non-fresh base media prior to perturbation): no signaling pathway activity | % HER2 Participation, ((CF-C) − (CCF-C))/(CF-C))*100 ([6]; Patient R112): 25% | Measurand (HER2 signal), ~(CF-C) − (CCF-C) ([6]; Patient R112): 103 | Total Ligand Signal (CF-C) ([6]; Patient R112): 398 | CAS (CCF), confirming factor + perturbing factor addition sample ([6]; Patient R112, HER2 participation confirming factor added before the perturbing ligand): 337

Pertuzumab
% Attenuation of NRG1 Signal ([6]; Patient R71): 68% | % Attenuation of NRG1 Signal ([6]; Patient R160): 95% | attenuation of the NRG1 and EGF driven activity, comparison in words [6]: significant attenuation | amount of pertuzumab inhibition of NRG1 driven activity, compared with SKBR3 ([6]; non-overexpressed HER2 patient sample R39 versus overexpressed HER2 cell line SKBR3): greater
